Key:
[1] = test system: Freund's complete adjuvant induced arthritis; experiment: Freund's complete adjuvant induced arthritis model, treatment of established arthritis; assay type: in vivo, Male Wistar rats; details: for dose dependence of inhibition of arthritis: dose increased from 100 mg/kg to 300 mg/kg
Procedure: (§1) The anti-inflammatory activity potential of both the isomers of the cetyl myristoleate (4 & 8) was evaluated initially in carrageenan induced rat paw edema model employing the method of Winter et al (Winter C A, Risley E A and Nuss G W, J. Pharmacolo. Exp. Ther. 1963; 141:369-376). The arthritis developed by injecting Freund's Complete Adjuvant in Wistar rats is almost similar to the rheumatoid arthritis of the human beings.
Effect of Hexadecyl cis-9-Tetradecenoate and Hexadecyl cis-10-Tetradecenoate on the Arthritic Rats: The hexadecyl cis-9-tetradecenoate, 4 and hexadecyl cis-10-tetradecenoate, 8 produced synthetically given above in Scheme 1 and 2 were subjected to evaluation for anti-arthritic potential in Freund's complete adjuvant induced arthritis model in rats. Male Wistar rats were divided into 4 groups each containing 6 rats. Arthritis was induced in rats in all the groups by administering Complete Freund's Adjuvant (CFA) at the dose of 1 mg per rat by injecting at sub plantar region of the right hind paw. Paw volumes were measured for both paws on every alternate day till 14 days and till full arthritis was developed.

[2] = test system: collagen-induced arthritis; details: synthesized pure compound, DBA/1 Lac J mice; cited from earlier work
[3] = test system: Freund's Complete Adjuvant induced poly arthritis; experiment: Freund's complete adjuvant induced polyarthritis, protection (dosing from 24 hr after adjuvant); assay type: in vivo, Male Wistar rats
Procedure: Evaluation of Hexadecyl cis-10-Tetradecenoate for Anti-arthritic Potential in Rats: The hexadecyl cis-10-tetradecenoate, 8 produced synthetically exemplified above in Scheme 2 was administered parenterally, particularly, by intraperitoneal route, either alone or in a compatible pharmaceutical carrier such as vegetable oils namely groundnut, sesame and cottonseed [for adjusting the dose volume of the active compound(s)] to male rats ranging in weight from 150 to 180 g. It should be noted that use of the mineral oil is not mandatory as the active compounds are oils themselves. The procedure as described in (Vogel's Drug Discovery and Evaluation Pharmacological assays, 2nd ed, 2002, Springer Verlag, pages 802-803) was followed. Male Wistar-rats were divided into one control and two treated groups. All the animals in three groups received Freund's complete adjuvant (1 mg/rat). This day was designated as day 1. After a period of 24 hr, hexadecyl cis-10-tetradecenoate, 8 was administered at a dose of 300 mg/kg to one treated group and another treated group received 2.5 mg/kg of indomethacin (used as standard drug). Dosing was continued for 15 days (FIG. 3). Control group received the vehicle (mineral oil) without any drug. Paw volumes (left and right) were measured on every alternate day.
All the rats in the control group developed severe polyarthritis as indicated by the increase in the paw volumes. […] Around 80% of the animals in the hexadecyl cis-10-tetradecenoate treated group were protected from developing arthritis in a period of 21 days. The remaining 20% rats were protected from arthritis in a period of 32 days.

[4] = test system: carrageenan induced paw edema; experiment: carrageenan induced rat paw edema model (anti-inflammatory potential); assay type: in vivo; details: rats
Procedure: as §1
Evaluation Studies of Hexadecyl cis-9-Tetradecenoate and Hexadecyl cis-10-Tetradecenoate for Anti-inflammatory. Potential: Hexadecyl cis-9-tetradecenoate, 4 and hexadecyl cis-10-tetradecenoate, 8 produced synthetically exemplified above in Scheme 1 and Scheme 2 were assessed for the anti-inflammatory potential against carrageenan induced paw edema model. Rats were divided into 4 groups. Hexadecyl cis-9-tetradecenoate, 4. and hexadecyl cis-10-tetradecenoate, 8 were administered intraperitoneally to rats in two different groups at a dose of 400 mg/kg. […] Paw volumes were measured using plethysmometer before injecting carrageenan. Paw volumes were again measured 3 hr after the carrageenan administration. The anti-inflammatory potential of hexadecyl cis-9-tetradecenoate, 4 and hexadecyl cis-10-tetradecenoate, 8 were assessed by measuring the inhibition of the paw volumes with reference to mean paw volume in control group.

Row | SMILES | dose dependence of inhibition of arthritis [1] | anti arthritic properties [2] | reduction of adjuvant-induced arthritis compared with hexadecyl cis-9-tetradecenoate, 4 ([1]; rats) | animals protected from developing arthritis in a period of 21 days ([3]; 300 mg/kg intraperitoneal, dosing for 15 days) | animals protected from developing arthritis in a period of 21 days ([3]; 300 mg/kg intraperitoneal, dosing for 15 days, listed as hexadecyl cis-10-tetradecenoate) | remaining rats protected from arthritis in a period of 32 days ([3]; 300 mg/kg intraperitoneal, dosing for 15 days, period of 32 days) | protection from polyarthritis (paw volumes) ([3]; 300 mg/kg intraperitoneal, from 24 hr after adjuvant, dosing continued for 15 days) | effective range (dose) for protection of arthritis ([3]; rats, Freund's complete adjuvant) | inhibition of inflammation compared with hexadecyl cis-9-tetradecenoate, 4 [4]
1 | CCCC/C=C\CCCCCCCC(=O)OCCCCCCCCCCCCCCCC [compound 4, hexadecyl cis-9-tetradecenoate] | dose dependent | confirmed its anti arthritic properties | – | – | – | – | – | – | –
2 | CCC/C=C\CCCCCCCCC(=O)OCCCCCCCCCCCCCCCC [compound 8, hexadecyl cis-10-tetradecenoate] | dose dependent | – | comparable | Around 80% | 80% | 20% | protected from the polyarthritis | 0.1 to 1.0 gm/kg body weight | comparable
